In patent publication US11014912B2, “Cyanopyrrolidine derivatives with activity as inhibitors of USP30” (MISSION THERAPEUTICS LIMITED, priority 2016, dated 2021):

Molecular target: USP30 (Homo sapiens (Human), UniProt Q70CQ3)
Test: USP30 biochemical IC50 assay
Conditions: fluorescence polarisation, TAMRA labelled peptide linked to ubiquitin substrate; enzyme and compound incubated 30 min at room temp; read after 2 h; read-out: IC50 range
Method: USP30 Biochemical IC50 Assay
Dilution plates were prepared at 21 times the final concentration (2100 μM for a final concentration of 100 μM) in 50% DMSO in a 96-well polypropylene V-bottom plate (Greiner #651201). A typical 8-point dilution series would be 100, 30, 10, 3, 1, 0.3, 0.1, 0.03 μM final. Reactions were performed in duplicate in black 384 well plates (small volume, Greiner 784076) in a final reaction volume of 21 μl. Either 1 μl of 50% DMSO or diluted compound was added to the plate. USP30 was diluted in reaction buffer (40 mM Tris, pH 7.5, 0.005% Tween 20, 0.5 mg/ml BSA, 5 mM beta-mercaptoethanol) to the equivalent of 0.05 μl/well and 10 μl of diluted USP30 was added to the compound. Enzyme and compound were incubated for 30 min at room temp. Reactions were initiated by the addition of 50 nM of TAMRA labelled peptide linked to ubiquitin via an iso-peptide bond as fluorescence polarisation substrate. Reactions were read immediately after addition of substrate and following a 2 h incubation at room temperature. Readings were performed on a Pherastar Plus (BMG Labtech). A Excitation 540 nm; A Emission 590 nm.

USP30, sequence (Q70CQ3 57-517): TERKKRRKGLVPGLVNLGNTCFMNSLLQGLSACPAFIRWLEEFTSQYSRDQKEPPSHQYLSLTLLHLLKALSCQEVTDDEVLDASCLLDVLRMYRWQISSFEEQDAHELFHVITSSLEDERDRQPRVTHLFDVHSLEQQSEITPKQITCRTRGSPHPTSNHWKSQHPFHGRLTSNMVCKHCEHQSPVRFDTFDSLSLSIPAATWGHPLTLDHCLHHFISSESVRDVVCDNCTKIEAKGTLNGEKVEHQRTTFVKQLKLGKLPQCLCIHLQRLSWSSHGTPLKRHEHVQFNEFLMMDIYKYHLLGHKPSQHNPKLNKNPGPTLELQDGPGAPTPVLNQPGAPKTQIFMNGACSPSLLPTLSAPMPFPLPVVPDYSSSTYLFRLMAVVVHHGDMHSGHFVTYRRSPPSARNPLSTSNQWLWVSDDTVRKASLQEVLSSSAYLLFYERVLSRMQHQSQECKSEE

SMILES | IC50 [nM]
N#CN1CCC(CC(=O)Nc2cc(-c3ccccc3)no2)C1 (stereo not drawn) [Example 6, 2-(1-Cyanopyrrolidin-3-yl)-N-(3-phenylisoxazol-5-yl)acetamide] | 100 to 1000
CN(C(=O)C=C1CCN(C#N)C1)c1nc2ccccc2s1 [Example 32, N-(Benzo[d]thiazol-2-yl)-2-(1-cyanopyrrolidin-3-ylidene)-N-methylacetamide] | 100 to 1000
N#CN1CC[C@H](CC(=O)Nc2cc(-c3cccc(OC(F)(F)F)c3)no2)C1 [Example 54, (R)-2-(1-cyanopyrrolidin-3-yl)-N-(3-(3-(trifluoromethoxy)phenyl)isoxazol-5-yl)acetamide] | 1 to 10
N#Cc1cccc(-c2nnc(NC(=O)CC3CCN(C#N)C3)o2)c1 (stereo not drawn) [Example 49, N-(5-(3-cyanophenyl)-1,3,4-oxadiazol-2-yl)-2-(1-cyanopyrrolidin-3-yl)acetamide] | 100 to 1000
N#CN1CC[C@H](CC(=O)Nc2cc(-c3ccc(Cl)cc3)no2)C1 [Example 35, (R)—N-(3-(4-Chlorophenyl)isoxazol-5-yl)-2-(1-cyanopyrrolidin-3-yl)acetamide] | 100 to 1000
COc1cccc(C2CN(C(=O)CC3CCN(C#N)C3)C2)c1 (stereo not drawn) [Example 13, 3-(2-(3-(3-Methoxyphenyl)azetidin-1-yl)-2-oxoethyl)pyrrolidine-1-carbonitrile] | 100 to 1000
CC(C(=O)N1CC(c2ccc(C#N)cc2)C1)[C@@H]1CCN(C#N)C1 (single isomer, unassigned) [Example 62] | 100 to 1000
Cc1ccc(NC(=O)C=C2CCN(C#N)C2)cc1Cl [Example 19, N-(3-Chloro-4-methylphenyl)-2-(1-cyanopyrrolidin-3-ylidene)acetamide] | 100 to 1000
N#CN1CCC(CC(=O)Nc2nc3cc(Cl)ccc3o2)C1 (stereo not drawn) [Example 8, N-(5-Chlorobenzo[d]oxazol-2-yl)-2-(1-cyanopyrrolidin-3-yl)acetamide] | 100 to 1000
CC(C(=O)N1CC(c2ccc(C#N)cc2)C1)[C@@H]1CCN(C#N)C1 (single isomer, unassigned) [Example 61] | 1000 to 10000
CC(C)Oc1ccc(C2CN(C(=O)C[C@@H]3CCN(C#N)C3)C2)nc1 [Example 65, (S)-3-(2-(3-(5-isopropoxypyridin-2-yl)azetidin-1-yl)-2-oxoethyl)pyrrolidine-1-carbonitrile] | 100 to 1000
N#CN1CC[C@H](CC(=O)Nc2nnc(-c3ccccc3)s2)C1 [Example 63, (R)-2-(1-cyanopyrrolidin-3-yl)-N-(5-phenyl-1,3,4-thiadiazol-2-yl)acetamide] | 1000 to 10000
N#CN1CCC(CC(=O)Nc2cccc(Cl)c2)C1 (stereo not drawn) [Example 2, N-(3-Chlorophenyl)-2-(1-cyanopyrrolidin-3-yl)acetamide] | 100 to 1000
CN(Cc1cc(-c2ccccc2)no1)C(=O)C=C1CCN(C#N)C1 [Example 27, 2-(1-Cyanopyrrolidin-3-ylidene)-N-methyl-N-((3-phenylisoxazol-5-yl)methyl)acetamide] | 100 to 1000
C[C@H](C(=O)Nc1cc(-c2cccc(Cl)c2)no1)[C@@H]1CCN(C#N)C1 [Example 50, (S)-N-(3-(3-chlorophenyl)isoxazol-5-yl)-2-((S)-1-cyanopyrrolidin-3-yl)propanamide] | 1 to 10
N#CN1CC[C@@H](CC(=O)Nc2cc(-c3ccc(Cl)cc3)no2)C1 [Example 34, (S)—N-(3-(4-Chlorophenyl)isoxazol-5-yl)-2-(1-cyanopyrrolidin-3-yl)acetamide] | 100 to 1000
N#Cc1cccc(-c2cc(NC(=O)C[C@H]3CCN(C#N)C3)on2)c1 [Example 51, (R)-N-(3-(3-cyanophenyl)isoxazol-5-yl)-2-(1-cyanopyrrolidin-3-yl)acetamide] | 1 to 10
COc1ccc2nc(NC(=O)CC3CCN(C#N)C3)sc2c1 (stereo not drawn) [Example 3, 2-(1-Cyanopyrrolidin-3-yl)-N-(6-methoxybenzo[d]thiazol-2-yl)acetamide] | 100 to 1000
COc1ccc(C2CN(C(=O)C[C@@H]3CCN(C#N)C3)C2)cc1-c1ccn[nH]1 [Example 39, (S)-3-(2-(3-(4-Methoxy-3-(1H-pyrazol-5-yl)phenyl)azetidin-1-yl)-2-oxoethyl)pyrrolidine-1-carbonitrile] | 10 to 100
CN(Cc1cc(-c2ccccc2)on1)C(=O)C=C1CCN(C#N)C1 [Example 25, 2-(1-Cyanopyrrolidin-3-ylidene)-N-methyl-N-((5-phenylisoxazol-3-yl)methyl)acetamide] | 100 to 1000
COc1cccc(-c2cc(NC(=O)C[C@@H]3CCN(C#N)C3)on2)c1 [Example 37, (S)—N-(3-(3-Methoxyphenyl)isoxazol-5-yl)-2-(1-cyanopyrrolidin-3-yl)acetamide] | 100 to 1000
N#CN1CCC(CC(=O)Nc2ccc(C(F)(F)F)nc2)C1 (stereo not drawn) [Example 4, 2-(1-Cyanopyrrolidin-3-yl)-N-(6-(trifluoromethyl)pyridin-3-yl)acetamide] | 1000 to 10000
CN(Cc1cc(-c2ccccc2)[nH]n1)C(=O)C=C1CCN(C#N)C1 [Example 30, 2-(1-Cyanopyrrolidin-3-ylidene)-N-methyl-N-((5-phenyl-1H-pyrazol-3-yl)methyl)acetamide] | 100 to 1000
N#CN1CCC(CC(=O)Nc2nc3ccc(Cl)cc3s2)C1 (stereo not drawn) [Example 5, N-(6-Chlorobenzo[d]thiazol-2-yl)-2-(1-cyanopyrrolidin-3-yl)acetamide] | 100 to 1000
N#CN1CCC(=CC(=O)Nc2ccc3ncsc3c2)C1 [Example 21, N-(Benzo[d]thiazol-6-yl)-2-(1-cyanopyrrolidin-3-ylidene)acetamide] | 1000 to 10000

The remaining lines, values ahead:

IC50 [nM] | SMILES
10 to 100 | COc1ccc(C2CN(C(=O)C[C@@H]3CCN(C#N)C3)C2)cc1-c1cnn(C)c1 [Example 67, (S)-3-(2-(3-(4-methoxy-3-(1-methyl-1H-pyrazol-4-yl)phenyl)azetidin-1-yl)-2-oxoethyl)pyrrolidine-1-carbonitrile]
100 to 1000 | N#CN1CCC(CC(=O)NC2CN(c3ccccn3)C2)C1 (stereo not drawn) [Example 47, 2-(1-cyanopyrrolidin-3-yl)-N-(1-(pyridin-2-yl)azetidin-3-yl)acetamide]
100 to 1000 | N#CN1CCC(=CC(=O)N2CC(c3ccccc3)C2)C1 [Example 18, 3-(2-Oxo-2-(3-phenylazetidin-1-yl)ethylidene)pyrrolidine-1-carbonitrile]
100 to 1000 | N#CN1CC[C@@H](CC(=O)Nc2nnc(-c3cccc(Cl)c3)o2)C1 [Example 48, (S)-N-(5-(3-chlorophenyl)-1,3,4-oxadiazol-2-yl)-2-(1-cyanopyrrolidin-3-yl)acetamide]
100 to 1000 | N#CN1CC[C@@H](CC(=O)Nc2nnc(-c3ccccc3)s2)C1 [Example 64, (S)-2-(1-cyanopyrrolidin-3-yl)-N-(5-phenyl-1,3,4-thiadiazol-2-yl)acetamide]
10 to 100 | Cc1cc(C2CN(C(=O)C[C@@H]3CCN(C#N)C3)C2)ccc1C#N [Example 59, (S)-3-(2-(3-(4-cyano-3-methylphenyl)azetidin-1-yl)-2-oxoethyl)pyrrolidine-1-carbonitrile]
100 to 1000 | N#Cc1ccc(C2CN(C(=O)C[C@@H]3CCN(C#N)C3)C2)cc1 [Example 52, (S)-3-(2-(3-(4-cyanophenyl)azetidin-1-yl)-2-oxoethyl)pyrrolidine-1-carbonitrile]
100 to 1000 | CN(Cc1cccc(-c2ccncc2)c1)C(=O)C=C1CCN(C#N)C1 [Example 26, 2-(1-Cyanopyrrolidin-3-ylidene)-N-methyl-N-(3-(pyridin-4-yl)benzyl)acetamide]
100 to 1000 | N#Cc1ccc(C2CN(C(=O)C[C@@H]3CCN(C#N)C3)C2)nc1 [Example 57, (S)-6-(1-(2-(1-cyanopyrrolidin-3-yl)acetyl)azetidin-3-yl)nicotinonitrile]
1000 to 10000 | COCCOc1ccc(C2CN(C(=O)C[C@@H]3CCN(C#N)C3)C2)cc1 [Example 66, (S)-3-(2-(3-(4-(2-methoxyethoxy)phenyl)azetidin-1-yl)-2-oxoethyl)pyrrolidine-1-carbonitrile]
100 to 1000 | CN(Cc1ccc(Cl)c(Cl)c1)C(=O)C=C1CCN(C#N)C1 [Example 33, 2-(1-Cyanopyrrolidin-3-ylidene)-N-(3,4-dichlorobenzyl)-N-methylacetamide]
100 to 1000 | COc1ccc(C2CN(C(=O)CC3CCN(C#N)C3)C2)cc1 (stereo not drawn) [Example 1, 3-(2-(3-(4-Methoxyphenyl)azetidin-1-yl)-2-oxoethyl)pyrrolidine-1-carbonitrile]
10 to 100 | COc1ccc(C2CN(C(=O)C[C@@H]3CCN(C#N)C3)C2)cc1-c1ccnn1C [Example 40, (S)-3-(2-(3-(4-Methoxy-3-(1-methyl-1H-pyrazol-5-yl)phenyl)azetidin-1-yl)-2-oxoethyl)-pyrrolidine-1-carbonitrile]
100 to 1000 | N#CN1CCC(=CC(=O)Nc2ccc(Cl)c(C(F)(F)F)c2)C1 [Example 20, N-(4-Chloro-3-(trifluoromethyl)phenyl)-2-(1-cyanopyrrolidin-3-ylidene)acetamide]
1000 to 10000 | N#CN1CCC(CC(=O)NCCc2ccccc2)C1 (stereo not drawn) [Example 11, 2-(1-Cyanopyrrolidin-3-yl)-N-phenethylacetamide]
100 to 1000 | N#CN1CCC(CC(=O)Nc2nnc(-c3ccccc3)s2)C1 (stereo not drawn) [Example 41, 2-(1-cyanopyrrolidin-3-yl)-N-(5-phenyl-1,3,4-thiadiazol-2-yl)acetamide]
1000 to 10000 | Cc1cc(C2CN(C(=O)CC3CCN(C#N)C3)C2)ccn1 (stereo not drawn) [Example 15, 3-(2-(3-(2-Methylpyridin-4-yl)azetidin-1-yl)-2-oxoethyl)pyrrolidine-1-carbonitrile]
